Measurements taken from ChEMBL document CHEMBL1144832, “An efficient one-pot synthesis of tethered cyclohexadiene enaminonitriles from methyl-ketones: an effective route to quinazolines” (Bioorg Med Chem Lett, 2008).

Experiments:
[1] = tested on: ScN2a; assay: Cytotoxicity against mouse ScN2a cells; format: functional
[2] = tested on: Escherichia coli; assay: Antimicrobial activity against Escherichia coli; format: functional
[3] = tested on: Jurkat; assay: Cytotoxicity against human Jurkat cells; format: functional, cell-based
[4] = tested on: Saccharomyces cerevisiae; assay: Antimicrobial activity against Saccharomyces cerevisiae; format: functional
[5] = tested on: Bacillus subtilis; assay: Antimicrobial activity against Bacillus subtilis; format: functional

Structure (SMILES) | Activity [1] [µM] | MIC [2] [µM] | CC50 [3] [µM] | MIC [4] [µM] | MIC [5] [µM] | IC50 [3] [µM]
N#Cc1c(N)nc(Sc2ccc(Cl)cc2)c(C#N)c1-c1ccccc1 | 35 |  |  |  |  | 
N#Cc1c(N)nc(Sc2ccccc2N)c(C#N)c1-c1ccco1 | 18 |  |  |  |  | 
CC1=C(/C=C/C2=Cc3ncnc(N)c3C(C)(/C=C/C3=C(C)CCCC3(C)C)C2)C(C)(C)CCC1 (stereo unspecified) |  | ≥ 189 | 12.8 | ≥ 197 | ≥ 163 | 
CC1(c2ccc(-c3ccccc3)cc2)CC(c2ccc(-c3ccccc3)cc2)=Cc2ncnc(N)c21 (stereo unspecified) |  | ≥ 189 | 10.4 | ≥ 197 | ≥ 163 | 
CC1(c2ccc(Br)s2)CC(c2ccc(Br)s2)=Cc2ncnc(N)c21 (stereo unspecified) |  | ≥ 189 | 9.51 | ≥ 197 | ≥ 163 | 
CC1(c2ccccc2)CC(c2ccccc2)=Cc2ncnc(N)c21 (stereo unspecified) |  | ≥ 189 | 17.6 | ≥ 197 | ≥ 163 | 
N#Cc1c(N)nc(Sc2ccc(Cl)cc2)c(C#N)c1-c1cccs1 | 16 |  |  |  |  | 
N#Cc1c(N)nc(Sc2ccc(Cl)cc2)c(C#N)c1-c1ccco1 | 19 |  |  |  |  | 
CC1(c2ccc(Br)cc2)CC(c2ccc(Br)cc2)=Cc2ncnc(N)c21 (stereo unspecified) |  | ≥ 189 | 12.7 | ≥ 197 | ≥ 163 | 
CC1(c2ccc(Br)cc2)CC(c2ccc(Br)cc2)=CC(N)=C1C#N (stereo unspecified) |  | ≥ 189 | 20.5 | ≥ 197 | ≥ 163 | 
CC1(c2ccccc2)CC(c2ccccc2)=CC(N)=C1C#N (stereo unspecified) |  | ≥ 189 | 15.1 | ≥ 197 | ≥ 163 | 
CCCCCCC1=CC(N)=C(C#N)C(C)(CCCCCC)C1 (stereo unspecified) |  | ≥ 189 | 46.8 | ≥ 197 | ≥ 163 | 
CCCCCCC1=Cc2ncnc(N)c2C(C)(CCCCCC)C1 (stereo unspecified) |  | ≥ 189 | 12.6 | ≥ 197 | ≥ 163 | 
CC1(c2ccc3ccccc3c2)CC(c2ccc3ccccc3c2)=Cc2ncnc(N)c21 (stereo unspecified) |  | ≥ 189 | 9.37 | ≥ 197 | ≥ 163 | 
CC1(c2cccs2)CC(c2cccs2)=Cc2ncnc(N)c21 (stereo unspecified) |  | ≥ 189 | 15.4 | ≥ 197 | ≥ 163 | 
CC1(c2ccc(F)cc2)CC(c2ccc(F)cc2)=Cc2ncnc(N)c21 (stereo unspecified) |  | ≥ 189 | 3.24 | ≥ 197 | ≥ 163 | 
CC1(c2cccs2)CC(c2cccs2)=CC(N)=C1C#N (stereo unspecified) |  | ≥ 189 | 172 | ≥ 197 | ≥ 163 | 
CC1(c2ccc3ccccc3c2)CC(c2ccc3ccccc3c2)=CC(N)=C1C#N (stereo unspecified) |  | ≥ 189 |  | ≥ 197 | ≥ 163 | 19
CC1(c2ccc(-c3ccccc3)cc2)CC(c2ccc(-c3ccccc3)cc2)=CC(N)=C1C#N (stereo unspecified) |  | ≥ 189 | 19.3 | ≥ 197 | ≥ 163 | 
CC1(c2ccc(Br)s2)CC(c2ccc(Br)s2)=CC(N)=C1C#N (stereo unspecified) |  | ≥ 189 | 13.9 | ≥ 197 | ≥ 163 | 
CC1=C(/C=C/C2=CC(N)=C(C#N)C(C)(/C=C/C3=C(C)CCCC3(C)C)C2)C(C)(C)CCC1 (stereo unspecified) |  | ≥ 189 | 12.7 | ≥ 197 | ≥ 163 | 
CC1(c2ccc(F)cc2)CC(c2ccc(F)cc2)=CC(N)=C1C#N (stereo unspecified) |  | ≥ 189 | 19.4 | ≥ 197 | ≥ 163 | 
